# Test results from BindingDB's records for doi:10.1002/cbic.200500061 (University of Bristol, 2005).
# Molecular target: T1, 1-deoxy-D-xylulose 5-phosphate reductoisomerase (Escherichia coli (strain K12), UniProt P45568)
# T1 sequence (P45568 whole entry): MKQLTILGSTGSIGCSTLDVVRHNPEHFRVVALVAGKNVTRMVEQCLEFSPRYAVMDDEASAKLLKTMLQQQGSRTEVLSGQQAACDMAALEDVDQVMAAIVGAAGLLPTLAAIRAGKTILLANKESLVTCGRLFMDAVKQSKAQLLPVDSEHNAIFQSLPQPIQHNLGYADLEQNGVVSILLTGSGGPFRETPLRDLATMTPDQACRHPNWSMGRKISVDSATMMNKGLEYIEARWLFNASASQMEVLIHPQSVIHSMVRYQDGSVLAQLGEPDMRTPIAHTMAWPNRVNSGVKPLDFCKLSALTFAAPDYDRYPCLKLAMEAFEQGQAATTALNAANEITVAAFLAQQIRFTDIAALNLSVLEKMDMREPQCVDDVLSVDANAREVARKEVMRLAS
# Test: Inhibition Assay
# Conditions: pH 8; 37 °C
# Protocol: The assay was monitored spectrophotometrically through the consumption of beta-NADPH. The inhibitor assays contained inhibitor at concentrations of 0.1-15 mM cyclic analogues and 5-35 mM phosphonic acid derivates.
row,SMILES,Ki [mM]
1,"NCCCP(=O)(O)O [Phosphate analogue, 8]",4
2,"CC(=O)NCCCP(=O)(O)O [Phosphate analogue, 9]",6.5
3,"O=C1N[C@H](COP(=O)(O)O)CO1 [Phosphate analogue, (S)-21]",4.1
4,"O=C1OC[C@@H](COP(=O)(O)O)N1O [Phosphate analogue, (s)-14]",0.75
